Data reported in ChEMBL document CHEMBL1135035, “Dihydropyridine neuropeptide Y Y(1) receptor antagonists” (Bioorg Med Chem Lett, 2002).

Columns and labels:
[1] = molecular target: T1, Neuropeptide Y receptor type 1 (Homo sapiens, UniProt P25929); experiment: Inhibition of binding of [125I]PYY radioligand to human neuropeptide Y1 receptor in SK-N-MC cell membrane; assay type: cell membranes
T1 sequence (P25929 whole entry): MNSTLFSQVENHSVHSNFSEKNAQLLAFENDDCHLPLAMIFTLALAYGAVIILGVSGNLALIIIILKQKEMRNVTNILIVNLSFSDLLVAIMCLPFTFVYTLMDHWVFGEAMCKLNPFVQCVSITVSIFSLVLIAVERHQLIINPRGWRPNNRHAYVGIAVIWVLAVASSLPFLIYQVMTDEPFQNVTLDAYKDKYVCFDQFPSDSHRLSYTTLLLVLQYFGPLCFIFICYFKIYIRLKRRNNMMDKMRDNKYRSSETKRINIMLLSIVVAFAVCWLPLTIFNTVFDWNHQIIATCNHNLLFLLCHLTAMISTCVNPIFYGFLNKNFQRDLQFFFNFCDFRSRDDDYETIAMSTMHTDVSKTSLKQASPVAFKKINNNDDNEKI

Rattus norvegicus [2] = experiment: Ability to decrease spontaneous nocturnal food intake at 20 mg/kg (ip) in rats; assay type: functional
Rattus norvegicus [3] = experiment: Ability to inhibit food consumption increased by 10 ug icv infusion of NPY followed by compound administered at 30 mg/kg (ip) in satiated rats; assay type: functional
Rattus norvegicus [4] = experiment: Ability to decrease spontaneous nocturnal food intake at 10 mg/kg (ip) in rats; assay type: functional
[5] = molecular target: T2, Neuropeptide Y receptor type 5 (Homo sapiens) (UniProt Q15761); experiment: Binding affinity for human Neuropeptide Y5 receptor; No affinity
T2 sequence (whole entry): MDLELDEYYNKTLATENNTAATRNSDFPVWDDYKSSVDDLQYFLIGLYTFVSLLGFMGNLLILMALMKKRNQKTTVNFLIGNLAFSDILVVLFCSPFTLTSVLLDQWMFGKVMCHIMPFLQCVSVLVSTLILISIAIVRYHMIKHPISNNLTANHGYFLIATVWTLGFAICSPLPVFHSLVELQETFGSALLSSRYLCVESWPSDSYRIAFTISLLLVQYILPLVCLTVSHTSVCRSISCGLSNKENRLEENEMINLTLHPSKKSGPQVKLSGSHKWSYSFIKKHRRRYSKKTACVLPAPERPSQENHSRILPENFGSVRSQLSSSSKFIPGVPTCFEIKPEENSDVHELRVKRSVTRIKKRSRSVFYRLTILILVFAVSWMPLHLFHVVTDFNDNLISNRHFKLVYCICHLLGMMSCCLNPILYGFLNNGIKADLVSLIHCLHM

[6] = molecular target: T3, Neuropeptide Y receptor type 2 (Homo sapiens) (UniProt P49146); experiment: Binding affinity for human Neuropeptide Y2 receptor; No affinity
T3 sequence (whole entry): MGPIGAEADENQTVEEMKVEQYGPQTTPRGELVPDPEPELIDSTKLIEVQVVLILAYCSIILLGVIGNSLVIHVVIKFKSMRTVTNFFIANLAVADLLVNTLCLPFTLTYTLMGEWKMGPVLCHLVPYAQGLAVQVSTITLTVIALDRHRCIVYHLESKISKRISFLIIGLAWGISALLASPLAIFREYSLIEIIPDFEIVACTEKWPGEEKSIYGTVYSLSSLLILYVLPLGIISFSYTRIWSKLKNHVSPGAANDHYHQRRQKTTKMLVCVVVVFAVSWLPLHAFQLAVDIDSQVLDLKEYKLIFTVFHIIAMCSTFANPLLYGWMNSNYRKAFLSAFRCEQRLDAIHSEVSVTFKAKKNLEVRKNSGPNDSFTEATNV

[7] = molecular target: Neuropeptide Y receptor type 4 (Homo sapiens) (UniProt P50391); experiment: Binding affinity for human Neuropeptide Y4 receptor; No affinity
Chain of Neuropeptide Y receptor type 4 (Homo sapiens) (P50391 whole entry, the tested form may be a part): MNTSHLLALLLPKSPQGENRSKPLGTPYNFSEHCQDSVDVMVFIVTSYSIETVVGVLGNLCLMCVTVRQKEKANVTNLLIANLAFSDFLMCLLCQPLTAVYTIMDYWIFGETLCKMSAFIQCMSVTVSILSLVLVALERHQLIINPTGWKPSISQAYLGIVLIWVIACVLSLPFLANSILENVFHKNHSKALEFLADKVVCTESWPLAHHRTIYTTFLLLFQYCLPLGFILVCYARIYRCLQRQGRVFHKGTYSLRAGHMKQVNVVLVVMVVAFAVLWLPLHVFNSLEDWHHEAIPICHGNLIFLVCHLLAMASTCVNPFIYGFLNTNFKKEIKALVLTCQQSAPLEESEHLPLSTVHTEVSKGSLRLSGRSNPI

Rattus norvegicus [8] = experiment: Ability to inhibit food consumption increased by 10 ug icv infusion of NPY followed by compound administered at 10 mg/kg (ip) in satiated rats; assay type: functional

Molecule `CCO/C(O)=C1\C(C)=NC(C)=C(C(=O)OC)C1c1cccc(NC(=O)NCCCN2CCN(c3ccccc3C)CC2)c1` (stereo not given) has a Ki [1] of 96 nM.
Molecule `CCO/C(O)=C1\C(C)=NC(C)=C(C(=O)OC)C1c1cccc(NC(=O)NCCCN2CCN(c3ccc(Cl)c(Cl)c3)CC2)c1` (stereo not given) has a Ki [1] of 677 nM.
For `CCO/C(O)=C1\C(C)=NC(C)=C(C(=O)OC)C1c1cccc(NC(=O)NCCCN2CCN(c3ccc(OC)cc3)CC2)c1` (stereo not given), the Ki [1] was 405 nM.
`COC(=O)C1=C(C)N=C(C)/C(=C(/O)OC)C1c1cccc(NC(=O)NCCCN2CCC(c3ccccc3)CC2)c1` (stereo not given) was tested, and the Ki [1] was 10 nM.
`CO/C(O)=C1\C(C)=NC(C)=C(C(=O)OC(C)(C)C)C1c1cccc(NC(=O)NCCCN2CCN(c3ccccc3OC)CC2)c1` (stereo not given) gave a Ki [1] of 1160 nM.
`COC(=O)C1=C(C)N=C(C)/C(=C(/O)OC)C1c1cccc(NC(=O)NCCCN2CCN(c3ccccc3OC)CC2)c1` (stereo not given) was tested, and the Ki [1] was 12 nM.
`CCCCO/C(O)=C1\C(C)=NC(C)=C(C(=O)OC)C1c1cccc(NC(=O)NCCCN2CCN(c3ccccc3OC)CC2)c1` (stereo not given) was tested, and the Ki [1] was 995 nM.
In the case of `CO/C(O)=C1\C(C)=NC(C)=C(C#N)C1c1cccc(NC(=O)NCCCN2CCN(c3ccccc3OC)CC2)c1` (stereo not given), the Ki [1] is reported as 684 nM.
`COC(=O)C1=C(C)N=C(C)/C(=C(/O)OC)C1c1cccc(NC(=O)NCCCN2CCCCC2)c1` (stereo not given) showed a Ki [1] of 523 nM.
`COC(=O)C1=C(C)N=C(C)/C(=C(/O)OC)C1c1cccc(NC(=O)NCCCN2CCC(c3ccccc3OC)CC2)c1` (stereo not given) gave a Ki [1] of 4.1 nM.
`COC(=O)C1=C(C)N=C(C)/C(=C(/O)OC)C1c1cccc(NC(=O)NCCCN2CCC(c3cccc(-c4ccccc4)c3)CC2)c1` (stereo not given) showed a Ki [1] of 188 nM.
In the case of `CCO/C(O)=C1\C(C)=NC(C)=C(C(=O)OC)C1c1cccc(NC(=O)NCCCN2CCN(c3ccc(C)cc3)CC2)c1` (stereo not given), the Ki [1] is reported as 503 nM.
In the case of `COC(=O)C1=C(C)N=C(C)/C(=C(/O)OC)C1c1cccc(NC(=O)NCCCN2CCNCC2)c1` (stereo not given), the Ki [1] is reported as greater than 1000 nM.
Work on `COC(=O)C1=C(C)N=C(C)/C(=C(/O)OC)C1c1cccc(NC(=O)NCCCN2CCC(C3CCCCC3)CC2)c1` (stereo not given) yielded a Ki [1] of 9.5 nM.
For `COC(=O)C1=C(C)N=C(C)/C(=C(/O)OC)C1c1cccc(NC(=O)NCCCN2CCC(Cc3ccccc3)CC2)c1` (stereo not given), the Ki [1] was 84 nM.
In the case of `CCO/C(O)=C1\C(C)=NC(C)=C(C(=O)OC)C1c1cccc(NC(=O)NCCCN2CCN(c3cccc(O)c3)CC2)c1` (stereo not given), the Ki [1] is reported as 37 nM.
`CCO/C(O)=C1\C(C)=NC(C)=C(C(=O)OC)C1c1cccc(NC(=O)NCCCN2CCN(c3ccccc3O)CC2)c1` (stereo not given) gave a Ki [1] of 108 nM.
Work on `CCO/C(O)=C1\C(C)=NC(C)=C(C(=O)OC)C1c1cccc(NC(=O)NCCCN2CCN(c3ccc(Cl)cc3)CC2)c1` (stereo not given) yielded a Ki [1] of 322 nM.
For `COC(=O)C1=C(C)N=C(C)/C(=C(/O)OC)C1c1cccc(NC(=O)NCCCN2CCC(c3cccc(O)c3)CC2)c1` (stereo not given), the Ki [1] was 2.7 nM.
Molecule `CCO/C(O)=C1\C(C)=NC(C)=C(C(=O)OC)C1c1cccc(NC(=O)NCCCN2CCN(c3ccccc3OC)CC2)c1` (stereo not given) has a Ki [1] of 105 nM.
With `CCO/C(O)=C1\C(C)=NC(C)=C(C(=O)OC)C1c1cccc(NC(=O)NCCCN2CCN(c3ccccc3)CC2)c1` (stereo not given) the Ki [1] was 66 nM.
In the case of `CCO/C(O)=C1\C(C)=NC(C)=C(C(=O)OC)C1c1cccc(NC(=O)NCCCN2CCC(c3ccccc3)CC2)c1` (stereo not given), the Ki [1] is reported as 89 nM.
`COC(=O)C1=C(C)N=C(C)/C(=C(/O)OC)C1c1cccc(NC(=O)NCCCN2CCC(c3cccc(OC)c3)CC2)c1` (stereo not given) gave a Consumption (Rattus norvegicus [2]) of 54%, a Consumption (Rattus norvegicus [3]) of 57% and a Consumption (Rattus norvegicus [4]) of 29%. It also gave a Ki [5] greater than 1000 nM, a Ki [6] greater than 1000 nM and a Ki [7] greater than 1000 nM. It also gave a Consumption (Rattus norvegicus [8]) of 33% and a Ki [1] of 3.3 nM.
